# “Also recorded” adds a separate entry of the source. Marks after values point to notes of the source that are not given here.
# Test system: migraine attack
# Experiment: Intravenous dose-finding study in acute migraine: headache response (moderate or severe becoming mild or none) and secondary efficacy
# Assay type: in vivo, human
# Description: Preclinical and early clinical experiments predict acute anti-migraine efficacy of Compound I that is mediated through a non-vascular, primarily neural, mechanism. In a multi-centre, placebo-controlled, double-blind, group-sequential, adaptive treatment-assignment, proof-of-concept and dose-finding study, 130 patients were treated in-hospital during a migraine attack. Patients were allocated to an intravenous dose level of Compound I or placebo in small cohorts. The starting dose was 2.5 mg. Subsequent doses were adjusted, up or down, according to the safety and efficacy seen in the preceding cohort. The primary outcome measure was headache response defined as improvement from moderate or severe headache at baseline to mild or no headache at 2 hours post-dose. The study was designed to explore the overall dose response relationship but was not powered to differentiate individual doses from placebo, nor to detect effect differences for other migraine symptoms.
# The study used a prospective, randomized, double-blind, placebo-controlled design with group-sequential adaptive-treatment assignment (Olesen J et al., N Engl J Med 2004: 350: 1104-10; Hall D B et al., Contemporary Clinical Trials 2005; 26: 349-63). […] The first cohort was allocated to the 2.5 mg dose level. The dose used in subsequent cohorts depended on the headache response (moderate or severe headache reduced to mild or none at 2 hours) of the previous cohort: if 2 or less of the 4 active-treated patients had responded, the dose was increased, and if 3 or more of the 4 active-treated patients had responded, the dose was reduced. The dose adjustment rules were chosen to identify doses of Compound I with efficacy similar to or better than an oral triptan. […] The occurrence of a drug-related serious adverse event would lead to automatic suspension of the randomization pending a safety review.
# Patients were initially screened for eligibility at an out-patient visit outside a migraine attack, and were invited to return to the clinic for treatment with study medication of a new, moderate or severe migraine attack within 4 hours of onset. On return to the clinic, eligibility for the study was reconfirmed and the patient was randomized. Patients were eligible for the study if they were between 18 and 65 years of age and had at least a 1 year history of migraine with or without aura fulfilling the IHS diagnostic criteria 1.1 and 1.2.1 (2004), with a migraine onset before the age of 50 years (Headache Classification Subcommittee of the International Headache Society. The International Classification of Headache Disorders (second edition). Cephalalgia 2004: 24; Supp11:1-160). Patients had to be experiencing between 1 and 8 migraine attacks a month and not be using migraine prophylactic medication. Patients were in good general health and had no evidence of vascular disease or hypertension. Patients with previous intolerance of triptans were excluded. Pregnant or breast-feeding women were excluded, as were women of childbearing potential who were not using a highly reliable form of contraception.
# On return of the patient to the clinic, instructions for dilution of study drug were obtained from an online randomization system by a pharmacist or other study personnel, independent of the investigator, and the study drug for infusion was prepared. Both investigator and pharmacist were blinded with regard to active or placebo and only the pharmacist knew the dilution. All patients received a 60 ml intravenous infusion over 20 minutes. Efficacy and safety data before and after administration of study drug were entered immediately into an electronic data capture system, so allowing the headache response to be used to drive dose-allocation for subsequent cohorts.
# Data were entered concurrently into an online electronic data capture system. Patients were discharged from the clinic after 4 h and continued to record migraine symptoms and adverse events until 24 h using a diary card. […]
smiles,measurement,setting,value
"CN1CCC(C(=O)c2cccc(NC(=O)c3c(F)cc(F)cc3F)n2)CC1 [Compound I, 2,4,6-trifluoro-N-[6-(1-methyl-piperidin-4-ylcarbonyl)-pyridin-2-yl]-benzamide]",Impression: very much/much better 2h,2.5 mg iv,75.0% of Patients
same,Nausea 2 h,2.5 mg iv,25.0% of Patients
same,No/mild disability 2 h,2.5 mg iv,75.0% of Patients
same,Pain freedom 2 h,2.5 mg iv,0.0% of Patients
same,Phonophobia 2 h,2.5 mg iv,25.0% of Patients
same,Photophobia 2 h,2.5 mg iv,25.0% of Patients
same,Sustained pain free,2.5 mg iv,0.0% of Patients
same,Sustained pain response,2.5 mg iv,50.0% of Patients
same,"Use of rescue medication, 2-24 h",2.5 mg iv,25.0% of Patients
same,Proportion of Patients with headache response,"2.5 mg iv, 10 min post dose",0.0% of Patients
same,Proportion of Patients with headache response,"2.5 mg iv, 20 min post dose",0.0% of Patients
same,Proportion of Patients with headache response,"2.5 mg iv, 40 min post dose",0.0% of Patients
same,Proportion of Patients with headache response,"2.5 mg iv, 60 min post dose",50.0% of Patients
same,Proportion of Patients with headache response,"2.5 mg iv, 90 min post dose",50.0% of Patients
same,Proportion of Patients with headache response,"2.5 mg iv, 120 min post dose",50.0% of Patients
same,Proportion of Patients with headache response,"2.5 mg iv, 180 min post dose",50.0% of Patients
same,Proportion of Patients with headache response,"2.5 mg iv, 240 min post dose",75.0% of Patients
same,Impression: very much/much better 2h,5 mg iv,8.3% of Patients
same,Nausea 2 h,5 mg iv,41.7% of Patients
same,No/mild disability 2 h,5 mg iv,16.6% of Patients
same,Pain freedom 2 h,5 mg iv,0.0% of Patients
same,Phonophobia 2 h,5 mg iv,41.7% of Patients
same,Photophobia 2 h,5 mg iv,75.0% of Patients
same,Sustained pain free,5 mg iv,0.0% of Patients
same,Sustained pain response,5 mg iv,8.3% of Patients
same,"Use of rescue medication, 2-24 h",5 mg iv,91.7% of Patients
same,Proportion of Patients with headache response,"5 mg iv, 10 min post dose",8.3% of Patients
same,Proportion of Patients with headache response,"5 mg iv, 20 min post dose",16.7% of Patients
same,Proportion of Patients with headache response,"5 mg iv, 40 min post dose",25.0% of Patients
same,Proportion of Patients with headache response,"5 mg iv, 60 min post dose",25.0% of Patients
same,Proportion of Patients with headache response,"5 mg iv, 90 min post dose",25.0% of Patients
same,Proportion of Patients with headache response,"5 mg iv, 120 min post dose",16.7% of Patients
same,Proportion of Patients with headache response,"5 mg iv, 180 min post dose",25.0% of Patients
same,Proportion of Patients with headache response,"5 mg iv, 240 min post dose",33.3% of Patients
same,Impression: very much/much better 2h,10 mg iv,37.5% of Patients
same,Nausea 2 h,10 mg iv,12.5% of Patients
same,No/mild disability 2 h,10 mg iv,54.2% of Patients
same,Pain freedom 2 h,10 mg iv,20.8% of Patients
same,Phonophobia 2 h,10 mg iv,25.0% of Patients
same,Photophobia 2 h,10 mg iv,45.8% of Patients
same,Sustained pain free,10 mg iv,12.5% of Patients
same,Sustained pain response,10 mg iv,33.3% of Patients
same,"Use of rescue medication, 2-24 h",10 mg iv,58.3% of Patients
same,Proportion of Patients with headache response,"10 mg iv, 10 min post dose",8.3% of Patients
same,Proportion of Patients with headache response,"10 mg iv, 20 min post dose",25.0% of Patients
same,Proportion of Patients with headache response,"10 mg iv, 40 min post dose",37.5% of Patients
same,Proportion of Patients with headache response,"10 mg iv, 60 min post dose",50.0% of Patients
same,Proportion of Patients with headache response,"10 mg iv, 90 min post dose",45.8% of Patients
same,Proportion of Patients with headache response,"10 mg iv, 120 min post dose",54.2% of Patients
same,Proportion of Patients with headache response,"10 mg iv, 180 min post dose",54.2% of Patients
same,Proportion of Patients with headache response,"10 mg iv, 240 min post dose",54.2% of Patients
same,onset of headache relief,20 mg and 30 mg iv,speed onset of headache relief; also recorded: rapid onset of headache relief
same,Impression: very much/much better 2h,20 mg iv,42.9% of Patients
same,Nausea 2 h,20 mg iv,21.4% of Patients
same,No/mild disability 2 h,20 mg iv,57.1% of Patients
same,Pain freedom 2 h,20 mg iv,28.6% of Patients
same,Phonophobia 2 h,20 mg iv,25.0% of Patients
same,Photophobia 2 h,20 mg iv,42.9% of Patients
same,Sustained pain free,20 mg iv,17.9% of Patients
same,Sustained pain response,20 mg iv,35.7% of Patients
same,"Use of rescue medication, 2-24 h",20 mg iv,53.6% of Patients
same,Proportion of Patients with headache response,"20 mg iv, 10 min post dose",14.3% of Patients
same,Proportion of Patients with headache response,"20 mg iv, 20 min post dose",39.3% of Patients
same,Proportion of Patients with headache response,"20 mg iv, 40 min post dose",50.0% of Patients
same,Proportion of Patients with headache response,"20 mg iv, 60 min post dose",53.6% of Patients
same,Proportion of Patients with headache response,"20 mg iv, 90 min post dose",53.6% of Patients
same,Proportion of Patients with headache response,"20 mg iv, 120 min post dose",64.3% of Patients
same,Proportion of Patients with headache response,"20 mg iv, 180 min post dose",60.7* Percent of Patients
same,Proportion of Patients with headache response,"20 mg iv, 240 min post dose",57.1* Percent of Patients
same,Impression: very much/much better 2h,30 mg iv,68.8% of Patients
same,Nausea 2 h,30 mg iv,6.3% of Patients
same,No/mild disability 2 h,30 mg iv,75.1% of Patients
same,Pain freedom 2 h,30 mg iv,37.5% of Patients
same,Phonophobia 2 h,30 mg iv,25.0% of Patients
same,Photophobia 2 h,30 mg iv,25.0% of Patients
same,Sustained pain free,30 mg iv,18.8% of Patients
same,Sustained pain response,30 mg iv,56.3% of Patients
same,"Use of rescue medication, 2-24 h",30 mg iv,37.5% of Patients
same,"associated symptoms (photophobia, phonophobia, nausea)",30 mg iv,"reduced associated symptoms of photophobia, phonophobia, and nausea"
same,headache recurrence within 24 hours,30 mg iv,reduced headache recurrence
same,moderate or severe disability reported,30 mg iv,reduced the percent of moderate or severe disability reported
same,patient global impression 2 hours post dose,30 mg iv,increased the number of patients who felt much or very much better; also recorded: increase in the number of patients who felt much better or very much better
same,use of rescue medication,30 mg iv,reduced the use of rescue medication
same,pain free at 2 hours versus placebo,30 mg iv over 20 minutes,completely abolished headache in a greater number of patients than placebo; also recorded: completely abolishes headache (‘pain free’) in a greater number of patients than placebo
same,Proportion of Patients with headache response,"30 mg iv, 10 min post dose",12.5% of Patients
same,Proportion of Patients with headache response,"30 mg iv, 20 min post dose",50.0% of Patients
same,Proportion of Patients with headache response,"30 mg iv, 40 min post dose",75.0* Percent of Patients
same,Proportion of Patients with headache response,"30 mg iv, 60 min post dose",75.0* Percent of Patients
same,Proportion of Patients with headache response,"30 mg iv, 90 min post dose",68.8% of Patients
same,Proportion of Patients with headache response,"30 mg iv, 120 min post dose",68.8% of Patients
same,Proportion of Patients with headache response,"30 mg iv, 180 min post dose",68.8* Percent of Patients
same,Proportion of Patients with headache response,"30 mg iv, 240 min post dose",68.8* Percent of Patients
same,Impression: very much/much better 2h,45 mg iv,50.0% of Patients
same,Nausea 2 h,45 mg iv,25.0% of Patients
same,No/mild disability 2 h,45 mg iv,25.0% of Patients
same,Pain freedom 2 h,45 mg iv,25.0% of Patients
same,Phonophobia 2 h,45 mg iv,25.0% of Patients
same,Photophobia 2 h,45 mg iv,25.0% of Patients
same,Sustained pain free,45 mg iv,25.0% of Patients
same,Sustained pain response,45 mg iv,25.0% of Patients
same,"Use of rescue medication, 2-24 h",45 mg iv,25.0% of Patients
same,Proportion of Patients with headache response,"45 mg iv, 10 min post dose",75.0* Percent of Patients
same,Proportion of Patients with headache response,"45 mg iv, 20 min post dose",75.0% of Patients
same,Proportion of Patients with headache response,"45 mg iv, 40 min post dose",75.0% of Patients
same,Proportion of Patients with headache response,"45 mg iv, 60 min post dose",50.0% of Patients
same,Proportion of Patients with headache response,"45 mg iv, 90 min post dose",75.0% of Patients
same,Proportion of Patients with headache response,"45 mg iv, 120 min post dose",75.0% of Patients
same,Proportion of Patients with headache response,"45 mg iv, 180 min post dose",75.0% of Patients
same,Proportion of Patients with headache response,"45 mg iv, 240 min post dose",25.0% of Patients
same,time at which response starts to separate from placebo,"doses of 20 mg and above, after start of infusion",20 min
same,efficacy in acute treatment of migraine,intravenous doses of 20 mg and higher,proved effective
same,effective dose identified by predefined stopping rules,"iv over 20 min, primary endpoint",20 mg
